Legend:
[1] = biological target: T1, Ephrin type-A receptor 6 (Mus musculus, UniProt Q62413); assay: Displacement of biotinylated Fc-tagged ephrin-A1 from recombinant N/C-terminal 6-his tagged mouse EphA6 (Ser28 to Gln546 residues) preincubated for 1 hr followed by ephrin-A1-Fc addition and measured after 4 to 5 hrs by ELISA assay
T1 sequence (Q62413 whole entry): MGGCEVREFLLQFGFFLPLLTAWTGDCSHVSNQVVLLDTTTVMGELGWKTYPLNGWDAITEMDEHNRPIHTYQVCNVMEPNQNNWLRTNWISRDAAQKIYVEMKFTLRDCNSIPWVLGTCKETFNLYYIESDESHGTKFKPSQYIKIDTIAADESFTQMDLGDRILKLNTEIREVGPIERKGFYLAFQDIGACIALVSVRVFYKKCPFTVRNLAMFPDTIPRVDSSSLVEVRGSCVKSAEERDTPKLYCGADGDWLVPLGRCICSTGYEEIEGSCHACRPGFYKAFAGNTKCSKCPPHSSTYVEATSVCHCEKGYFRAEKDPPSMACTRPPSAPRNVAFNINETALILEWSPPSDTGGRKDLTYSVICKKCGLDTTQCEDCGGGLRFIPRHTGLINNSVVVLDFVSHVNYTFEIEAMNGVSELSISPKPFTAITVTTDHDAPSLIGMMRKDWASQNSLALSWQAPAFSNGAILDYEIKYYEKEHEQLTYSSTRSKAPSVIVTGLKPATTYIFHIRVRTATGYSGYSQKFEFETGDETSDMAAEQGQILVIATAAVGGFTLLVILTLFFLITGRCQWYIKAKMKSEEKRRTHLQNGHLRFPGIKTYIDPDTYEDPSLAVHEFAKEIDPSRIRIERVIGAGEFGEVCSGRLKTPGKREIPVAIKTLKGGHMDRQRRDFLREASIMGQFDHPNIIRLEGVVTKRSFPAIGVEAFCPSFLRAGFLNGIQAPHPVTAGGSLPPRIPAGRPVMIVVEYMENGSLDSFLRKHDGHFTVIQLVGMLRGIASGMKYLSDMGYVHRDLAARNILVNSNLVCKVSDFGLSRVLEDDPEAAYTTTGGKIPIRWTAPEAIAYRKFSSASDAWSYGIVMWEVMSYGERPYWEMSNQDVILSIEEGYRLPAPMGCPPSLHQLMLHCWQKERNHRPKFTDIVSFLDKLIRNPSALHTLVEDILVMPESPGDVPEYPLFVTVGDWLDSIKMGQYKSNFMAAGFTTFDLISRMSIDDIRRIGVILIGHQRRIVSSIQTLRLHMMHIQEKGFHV

[2] = biological target: Ephrin type-A receptor 7 (Mus musculus, UniProt Q61772); assay: Displacement of biotinylated Fc-tagged ephrin-A1 from recombinant N/C-terminal 6-his tagged mouse EphA7 (Ala30 to Pro549 residues) preincubated for 1 hr followed by ephrin-A1-Fc addition and measured after 4 to 5 hrs by ELISA assay
[3] = biological target: T2, Ephrin type-B receptor 3 (Mus musculus, UniProt P54754); assay: Displacement of biotinylated Fc-tagged ephrin-B1 from recombinant mouse EphB3 (Leu 30 to Thru537 residues) preincubated for 1 hr followed by ephrin-B1-Fc addition and measured after 4 to 5 hrs by ELISA assay
T2 sequence (P54754 whole entry): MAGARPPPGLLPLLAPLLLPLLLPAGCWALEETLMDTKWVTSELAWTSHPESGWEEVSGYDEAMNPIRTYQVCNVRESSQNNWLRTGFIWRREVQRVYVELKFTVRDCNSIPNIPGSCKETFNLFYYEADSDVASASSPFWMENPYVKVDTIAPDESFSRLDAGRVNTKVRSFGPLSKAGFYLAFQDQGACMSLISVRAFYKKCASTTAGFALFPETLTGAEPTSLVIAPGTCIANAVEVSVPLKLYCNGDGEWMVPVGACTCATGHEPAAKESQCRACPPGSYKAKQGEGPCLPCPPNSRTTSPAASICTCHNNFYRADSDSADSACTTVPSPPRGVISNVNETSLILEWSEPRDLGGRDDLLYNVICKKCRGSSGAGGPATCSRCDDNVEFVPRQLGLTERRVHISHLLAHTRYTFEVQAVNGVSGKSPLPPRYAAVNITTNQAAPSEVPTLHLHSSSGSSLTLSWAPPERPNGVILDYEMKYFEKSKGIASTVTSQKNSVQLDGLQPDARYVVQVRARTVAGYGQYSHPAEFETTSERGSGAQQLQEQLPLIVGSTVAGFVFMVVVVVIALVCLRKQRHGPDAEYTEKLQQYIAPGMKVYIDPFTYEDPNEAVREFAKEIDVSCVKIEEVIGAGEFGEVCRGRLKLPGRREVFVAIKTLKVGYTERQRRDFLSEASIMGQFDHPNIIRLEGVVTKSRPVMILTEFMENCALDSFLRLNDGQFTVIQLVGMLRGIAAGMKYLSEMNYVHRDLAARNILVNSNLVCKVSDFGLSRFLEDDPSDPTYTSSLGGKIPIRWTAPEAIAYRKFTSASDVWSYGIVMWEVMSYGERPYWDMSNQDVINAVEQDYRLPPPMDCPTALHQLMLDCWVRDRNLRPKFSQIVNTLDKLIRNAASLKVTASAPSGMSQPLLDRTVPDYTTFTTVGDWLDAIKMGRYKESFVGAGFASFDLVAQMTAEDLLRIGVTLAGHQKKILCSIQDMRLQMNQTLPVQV

[4] = biological target: Ephrin type-A receptor 5 (Rattus norvegicus, UniProt P54757); assay: Displacement of biotinylated Fc-tagged ephrin-A1 from recombinant N/C-terminal 6-his tagged rat EphA5 (Ser 58 to Gln573 residues) preincubated for 1 hr followed by ephrin-A1-Fc addition and measured after 4 to 5 hrs by ELISA assay
Sequence of Ephrin type-A receptor 5 (P54757 whole entry): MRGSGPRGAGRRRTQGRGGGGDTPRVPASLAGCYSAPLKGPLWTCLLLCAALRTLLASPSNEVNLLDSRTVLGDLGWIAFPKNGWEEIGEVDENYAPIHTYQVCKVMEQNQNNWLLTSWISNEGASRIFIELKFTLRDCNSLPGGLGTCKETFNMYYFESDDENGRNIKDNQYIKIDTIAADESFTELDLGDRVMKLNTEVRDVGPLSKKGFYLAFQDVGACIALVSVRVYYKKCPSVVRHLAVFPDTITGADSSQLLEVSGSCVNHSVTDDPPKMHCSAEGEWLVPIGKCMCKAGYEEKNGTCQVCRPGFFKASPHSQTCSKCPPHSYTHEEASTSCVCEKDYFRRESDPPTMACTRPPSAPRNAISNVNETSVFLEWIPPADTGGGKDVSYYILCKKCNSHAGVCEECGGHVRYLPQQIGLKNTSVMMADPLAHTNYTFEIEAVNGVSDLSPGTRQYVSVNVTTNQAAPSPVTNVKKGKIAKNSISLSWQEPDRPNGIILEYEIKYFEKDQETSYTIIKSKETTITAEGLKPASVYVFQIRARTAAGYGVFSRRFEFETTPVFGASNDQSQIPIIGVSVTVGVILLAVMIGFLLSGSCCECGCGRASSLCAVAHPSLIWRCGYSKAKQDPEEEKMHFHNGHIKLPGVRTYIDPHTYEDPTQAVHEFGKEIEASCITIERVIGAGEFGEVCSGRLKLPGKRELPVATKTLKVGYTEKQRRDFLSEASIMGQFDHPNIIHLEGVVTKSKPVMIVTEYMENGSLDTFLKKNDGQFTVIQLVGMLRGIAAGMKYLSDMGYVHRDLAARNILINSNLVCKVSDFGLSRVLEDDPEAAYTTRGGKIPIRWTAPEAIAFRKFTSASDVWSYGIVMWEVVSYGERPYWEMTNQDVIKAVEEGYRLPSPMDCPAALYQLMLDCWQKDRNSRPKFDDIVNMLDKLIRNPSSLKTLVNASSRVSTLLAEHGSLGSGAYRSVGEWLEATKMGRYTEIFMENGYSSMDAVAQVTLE

Sequence of Ephrin type-A receptor 7 (Q61772 whole entry): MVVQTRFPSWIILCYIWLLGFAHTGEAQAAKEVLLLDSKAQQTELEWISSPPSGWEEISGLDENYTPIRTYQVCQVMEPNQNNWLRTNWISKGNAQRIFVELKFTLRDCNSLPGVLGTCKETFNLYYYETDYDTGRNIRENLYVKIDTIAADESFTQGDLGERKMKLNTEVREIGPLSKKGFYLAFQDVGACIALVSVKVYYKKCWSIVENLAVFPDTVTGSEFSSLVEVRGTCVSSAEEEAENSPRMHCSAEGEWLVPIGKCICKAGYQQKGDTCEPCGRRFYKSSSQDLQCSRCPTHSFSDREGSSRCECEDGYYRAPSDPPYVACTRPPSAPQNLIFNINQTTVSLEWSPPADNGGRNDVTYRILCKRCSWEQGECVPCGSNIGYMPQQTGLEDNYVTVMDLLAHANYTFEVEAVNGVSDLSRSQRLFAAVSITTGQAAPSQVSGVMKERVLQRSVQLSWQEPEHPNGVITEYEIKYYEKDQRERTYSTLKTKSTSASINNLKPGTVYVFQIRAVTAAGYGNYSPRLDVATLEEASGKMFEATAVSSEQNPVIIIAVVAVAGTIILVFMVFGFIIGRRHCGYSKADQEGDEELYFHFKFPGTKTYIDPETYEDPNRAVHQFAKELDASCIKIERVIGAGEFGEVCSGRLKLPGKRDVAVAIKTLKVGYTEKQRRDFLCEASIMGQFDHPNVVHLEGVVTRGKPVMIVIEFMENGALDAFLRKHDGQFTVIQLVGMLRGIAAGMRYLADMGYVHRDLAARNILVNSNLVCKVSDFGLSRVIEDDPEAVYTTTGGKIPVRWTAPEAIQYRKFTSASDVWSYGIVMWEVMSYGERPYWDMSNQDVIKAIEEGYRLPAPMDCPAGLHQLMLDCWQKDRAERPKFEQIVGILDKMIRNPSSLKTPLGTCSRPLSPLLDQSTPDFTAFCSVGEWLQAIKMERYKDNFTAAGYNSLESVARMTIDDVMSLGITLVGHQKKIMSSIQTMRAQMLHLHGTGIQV

C[C@H](CCC(=O)N[C@H](CC(=O)O)Cc1c[nH]c2ccccc12)[C@H]1CC[C@H]2[C@@H]3CC=C4C[C@@H](O)CC[C@]4(C)[C@H]3CC[C@]12C
IC50 [1]: 2.9 µM | IC50 [2]: 4.5 µM | IC50 [3]: 9.8 µM | IC50 [4]: 3 µM

C[C@H](CCC(=O)N[C@H](CC(=O)O)Cc1cn(S(=O)(=O)c2ccccc2)c2ccccc12)[C@H]1CC[C@H]2[C@@H]3CC=C4C[C@@H](O)CC[C@]4(C)[C@H]3CC[C@]12C
IC50 [1]: 11 µM | IC50 [2]: 22 µM | IC50 [3]: > 30 µM | IC50 [4]: 10 µM

C[C@H](CCC(=O)N[C@H](CC(=O)O)Cc1cn(S(=O)(=O)c2ccc(C(F)(F)F)cc2)c2ccccc12)[C@H]1CC[C@H]2[C@@H]3CC=C4C[C@@H](O)CC[C@]4(C)[C@H]3CC[C@]12C
IC50 [1]: 10 µM | IC50 [2]: 15 µM | IC50 [3]: > 30 µM | IC50 [4]: 9.3 µM
